# According to US10441608B2, “Continuous methods for treating liquids and manufacturing certain constituents (e.g., nanoparticles) in liquids, apparatuses and nanoparticles and nanoparticle/liquid solution(s) resulting therefrom” (Clene Nanomedicine, Inc., priority 2009, dated 2019):
# Several values for one entry are separate records, joined by “and”; a condition that tells them apart may be missing. Equal entries are not always repeated. Where two headings read alike, the source gives them in different places.
# System: Gram-Positive and Gram Negative bacteria
# Assay type: cell-based
structure (smiles),measurement,setting,value
C[C@H]1COc2c(N3CCN(C)CC3)c(F)cc3c(=O)c(C(=O)O)cn1c23 [Levofloxacin],MIC/MID 50,Citrobacter freundii - antibiotic-susceptible clinical isolate,0.02 µg/mL
same,MIC/MID 50,Citrobacter freundii - resistant clinical isolate,8.00 µg/mL
same,MIC/MID 50,Enterobacter sp - antibiotic-susceptible clinical isolate,0.12 µg/mL
same,MIC/MID 50,Enterobacter sp - multi-drug resistant clinical isolate,0.06 µg/mL
same,MIC/MID 50,Enterococcus faecalis - ATCC 29212 antibiotic-susceptible control strain,2.00 µg/mL
same,MIC/MID 50,Enterococcus faecalis vancomycin-susceptible clinical isolate,4.00 µg/mL
same,MIC/MID 50,Enterococcus faecium vancomycin-resistant (VanB) clinical isolate,4.00 µg/mL
same,MIC/MID 50,Enterococcus gallinarum vancomycin-resistant (VanC) clinical isolate,2.00 µg/mL
same,MIC/MID 50,Escherichia coli ATCC25922 - antibiotic-susceptible type strain,0.02 µg/mL
same,MID/MIC (amount of antibiotic),"GN01 Escherichia coli ATCC25922, antibiotic-susceptible type strain",0.015 µg/mL
same,MID/MIC (amount of antibiotic),"GN02 Escherichia coli ATCC35218, β-lactamase positive type strain",0.015 µg/mL
same,MID/MIC (amount of antibiotic),"GN06 Enterobacter sp, antibiotic-susceptible clinical isolate",0.06 µg/mL and 0.12 µg/mL
same,MID/MIC (amount of antibiotic),"GN10 Pseudomonas aeruginosa ATCC27853, antibiotic-susceptible type strain",2 µg/mL
same,MID/MIC (amount of antibiotic),"GN11 Pseudomonas aeruginosa, multi-drug resistant clinical isolate",2 µg/mL
same,MID/MIC (amount of antibiotic),"GN12 Stenotrophomonas maltophilia, antibiotic-susceptible clinical isolate",0.25 µg/mL
same,MID/MIC (amount of antibiotic),"GN13 Stenotrophomonas maltophila, antibiotic-resistant clinical isolate",1 µg/mL
same,MID/MIC (amount of antibiotic),"GN14 Burkholderia cepacia, antibiotic-susceptible clinical isolate",4 µg/mL
same,MID/MIC (amount of antibiotic),"GN15 Proteus mirabilis, antibiotic-susceptible clinical isolate",0.06 µg/mL
same,MID/MIC (amount of antibiotic),"GN16 Proteus mirabilis, multi-drug resistant clinical isolate",2 µg/mL
same,MID/MIC (amount of antibiotic),"GN17 Salmonella sp, antibiotic-susceptible clinical isolate",0.03 µg/mL
same,MID/MIC (amount of antibiotic),"GN18 Salmonella sp, multi-drug resistant clinical isolate",0.06 µg/mL
same,MID/MIC (amount of antibiotic),"GN19 Shigella sp, antibiotic-susceptible clinical isolate",0.03 µg/mL
same,MID/MIC (amount of antibiotic),"GN20 Shigella sp, multi-drug resistant clinical isolate",0.03 µg/mL
same,MID/MIC (amount of antibiotic),"GN22 Morganella morganii, multi-drug resistant clinical isolate",1 µg/mL
same,MID/MIC (amount of antibiotic),"GN23 Providencia stuartii, antibiotic-susceptible clinical isolate",0.06 µg/mL
same,MID/MIC (amount of antibiotic),"GN24 Providencia stuartii, multi-drug resistant clinical isolate",8 µg/mL
same,MID/MIC (amount of antibiotic),"GN28 Haemophilus influenzae, β-lactamase negative ampicillin-resistant clinical isolate",0.06 µg/mL
same,MID/MIC (amount of antibiotic),"GN29 Moraxella catarrhalis, β-lactamase positive clinical isolate",0.06 µg/mL
same,MID/MIC (amount of antibiotic),"GN32 Acinetobacter baumanii, multi-drug resistant clinical isolate",8 µg/mL
same,MID/MIC (amount of antibiotic),"GN33 Bacteroides fragilis, antibiotic-susceptible clinical isolate, supplemented with 2% serum and 1 μg/mL Vit K",0.015 µg/mL
same,MID/MIC (amount of antibiotic),"GP02 Staphylococcus aureus ATCC 25923, antibiotic-susceptible control strain",0.12 µg/mL
same,MID/MIC (amount of antibiotic),"GP04 Staphylococcus aureus, methicillin-resistant clinical isolate",0.12 µg/mL
same,MID/MIC (amount of antibiotic),"GP05 Staphylococcus aureus, multi-drug-resistant clinical isolate",4 µg/mL
same,MID/MIC (amount of antibiotic),"GP06 Staphylococcus aureus, teicoplanin-intermediate clinical isolate",4 µg/mL
same,MID/MIC (amount of antibiotic),"GP07 Staphylococcus epidermidis, antibiotic susceptible clinical isolate",0.12 µg/mL
same,MID/MIC (amount of antibiotic),"GP08 Staphylococcus epidermidis, methicillin-resistant clinical isolate",0.25 µg/mL
same,MID/MIC (amount of antibiotic),"GP09 Staphylococcus haemolyticus, antibiotic susceptible clinical isolate",0.5 µg/mL
same,MID/MIC (amount of antibiotic),"GP10 Staphylococcus saprophyticus, antibiotic susceptible clinical isolate",0.5 µg/mL
same,MID/MIC (amount of antibiotic),"GP11 Enterococcus faecalis ATCC 29212, antibiotic-susceptible control strain",2 µg/mL
same,MID/MIC (amount of antibiotic),"GP12 Enterococcus faecalis, vancomycin-susceptible clinical isolate",4 µg/mL
same,MID/MIC (amount of antibiotic),"GP15 Enterococcus faecalis, high-level gentamicin-resistant clinical isolate",>8 µg/mL
same,MID/MIC (amount of antibiotic),"GP16 Enterococcus faecium, vancomycin-susceptible clinical isolate",>8 µg/mL
same,MID/MIC (amount of antibiotic),"GP17 Enterococcus faecium, vancomycin-resistant (VanA) clinical isolate",4 µg/mL
same,MID/MIC (amount of antibiotic),"GP18 Enterococcus faecium, vancomycin-resistant (VanB) clinical isolate",2 µg/mL
same,MID/MIC (amount of antibiotic),"GP19 Enterococcus gallinarum, vancomycin-resistant (VanC) clinical isolate",1 µg/mL
same,MID/MIC (amount of antibiotic),"GP20 Streptococcus pneumoniae ATCC 49619, antibiotic-susceptible control strain",1 µg/mL
same,MID/MIC (amount of antibiotic),"GP21 Streptococcus pneumoniae, pencillin-susceptible clinical isolate",0.5 µg/mL
same,MID/MIC (amount of antibiotic),"GP22 Streptococcus pneumoniae, penicillin-intermediate clinical isolate",0.5 µg/mL
same,MID/MIC (amount of antibiotic),"GP23 Streptococcus pneumoniae, penicillin-resistant clinical isolate",0.5 µg/mL and 1 µg/mL
same,MID/MIC (amount of antibiotic),"GP25 Streptococcus pyogenes, antibiotic-susceptible clinical isolate",0.5 µg/mL
same,MID/MIC (amount of antibiotic),"GP29 Corynebacterium jeikeium, multi-drug resistant clinical isolate",0.5 µg/mL
same,MID/MIC (amount of antibiotic),"GP30 Listeria monocytogenes, antibiotic-susceptible clinical isolate",8 µg/mL
same,MID/MIC (amount of antibiotic),"GP31 MU50 Staphylococcus aureus (MRSA), VISA type strain",0.06 µg/mL
